According to ChEMBL document CHEMBL4425152, “New P2X3 receptor antagonists. Part 1: Discovery and optimization of tricyclic compounds” (Bioorg Med Chem Lett, 2016):

Assay: in vitro
Details: human, Caco-2

| Papp | Structure (SMILES) |
| --- | --- |
| 46.8 ×10⁻⁶ cm/s | COc1ccc(OC)c(CCn2cnc3sc4c(c3c2=O)CCC(C(=O)N(C)C)C4)c1 (stereo not drawn) |
| 30.6 ×10⁻⁶ cm/s | COc1cc(C(C)C)c(Oc2cnc(N)nc2N)cc1I |
| 0.7 ×10⁻⁶ cm/s | COc1cc(C(C)C)c(Oc2cnc(N)nc2N)cc1S(N)(=O)=O [GEFAPIXANT] |
